{"source": "the SangsterLogP compilation"}
{"smiles": "Nc1cccc2ncccc12", "values": [{"measurement": "logP", "result": 1.27}]}
{"smiles": "Nc1ccc2[nH]ccc2c1", "values": [{"measurement": "logP", "result": 1.13}]}
{"smiles": "Nc1cc2ccccc2cc1N", "values": [{"measurement": "logP", "result": 1.54}]}
{"smiles": "Cc1ccc(N)c([N+](=O)[O-])c1", "values": [{"measurement": "logP", "result": 1.82}]}
{"smiles": "Nc1ccc2[nH]ncc2c1", "values": [{"measurement": "logP", "result": 0.65}]}
{"smiles": "O=[N+]([O-])c1ccc2nc[nH]c2c1", "values": [{"measurement": "logP", "result": 1.5}]}
{"smiles": "O=[N+]([O-])c1ccncc1", "values": [{"measurement": "logP", "result": 0.6}]}
{"smiles": "Nc1nc2ccccc2[nH]1", "values": [{"measurement": "logP", "result": 1.34}]}
{"smiles": "Nc1cccc2c(N)cccc12", "values": [{"measurement": "logP", "result": 0.89}]}
{"smiles": "Nc1cccc2cccc(N)c12", "values": [{"measurement": "logP", "result": 1.78}]}
{"smiles": "O=[N+]([O-])c1ccc2nn[nH]c2c1", "values": [{"measurement": "logP", "result": 1.95}]}
{"smiles": "Cc1cc(N)c([N+](=O)[O-])cc1C", "values": [{"measurement": "logP", "result": 2.07}]}
